Measured values from ChEMBL document CHEMBL5260833, “An overview of quinazolines: Pharmacological significance and recent developments” (Eur J Med Chem, 2018).

Key:
[1] = tested on: Canis familiaris; assay: Antiplatelet activity in iv dosed dog assessed as platelet aggregation; assay type: functional, organism-based; details: Canis lupus familiaris
[2] = tested on: Rattus norvegicus; assay: Antiinflammatory activity in rat at assessed as reduction in paw edema at 200 mg/kg relative to control; assay type: functional
[3] = Antiviral activity against Gomphrena mosaic virus relative to control; assay type: functional, Gomphrena mosiac virus; design: concentration or dose not given beside the values
[4] = tested on: Mus musculus; assay: Anticonvulsant activity in ip dosed mouse assessed as reduction in tonus phase; assay type: functional
[5] = Inhibition of HCV RNA IRES IIa by FRET assay; design: species or system Hepacivirus hominis
[6] = target: Histamine H2 receptor (Homo sapiens) (UniProt P25021); assay: Inhibition of histamine h2 (unknown origin)
[7] = organism: Homo sapiens; assay: Immunosuppressive activity in human T cell; assay type: functional, organism-based
[8] = organism: Homo sapiens; assay: Immunosuppressive activity in human B cell; assay type: functional, organism-based
[9] = tested on: Oryctolagus cuniculus; assay: Antihypertensive activity in po dosed rabbit assessed as decrease in 30mmhg of systolic blood pressure measured after 4 to 6 hrs; assay type: functional; details: time 4-6 hrs
[10] = tested on: Mus musculus; assay: Sedative activity in mouse assessed as sleeping time at 300 mg/kg, ip; assay type: functional
[11] = tested on: Mus musculus; assay: Sedative activity in mouse assessed as sleeping time at 30 mg/kg, ip; assay type: functional
[12] = tested on: Mus musculus; assay: Sedative activity in mouse assessed as sleeping time at 100 mg/kg, ip; assay type: functional
[13] = tested on: MDA-MB-231; assay: Anticancer activity against human MDA-MB-231 cells assessed as cell growth inhibition incubated for 24 hrs by MTT assay; assay type: functional, cell-based; details: MDA-MB-231, 24 h
[14] = tested on: HeLa; assay: Anticancer activity against human HeLa cells assessed as cell growth inhibition incubated for 24 hrs by MTT assay; assay type: functional, cell-based
[15] = tested on: Human immunodeficiency virus 1; assay: Antiviral activity against HIV-1 infected in human MT4 cells assessed as protection against virus-induced cytotoxicity relative to control; assay type: functional; design: concentration or dose not given beside the values
[16] = tested on: Human immunodeficiency virus 2; assay: Antiviral activity against HIV-2 infected in human MT4 cells assessed as protection against virus-induced cytotoxicity relative to control; assay type: functional; design: concentration or dose not given beside the values
[17] = organism: Mus musculus; assay: Sedative hypnotic activity in mouse; assay type: functional; design: concentration or dose not given beside the values
[18] = tested on: Mus musculus; assay: Anticonvulsant activity in ip dosed mouse assessed as reduction in clonus phase; assay type: functional
[19] = tested on: WIL2; assay: Anticancer activity against human WIL2 cell assessed as cell growth inhibition measured after 120 hrs; assay type: functional, cell-based; details: WIL2, 120 h
[20] = tested on: CCRF-CEM; assay: Anticancer activity against human CCRF-CEM cell assessed as cell growth inhibition measured after 120 hrs; assay type: functional, cell-based
[21] = tested on: Rattus norvegicus; assay: Antiinflammatory activity in carrageenan induced rat at assessed as reduction in paw edema 50 mg/kg, ip measured after […] relative to control; assay type: functional; design: scale not given: the % may be the effect or the level left
[22] = tested on: Human immunodeficiency virus; assay: Antiviral activity against HIV infected in human H9 cells; assay type: functional, organism-based; details: Human immunodeficiency virus 1, H9
[23] = Therapeutic index, ratio of IC50 for antiviral activity against HIV infected in human H9 cells to EC50 for antiviral activity against HIV infected in human H9 cells; assay type: toxicity, cell-based; details: human immunodeficiency virus, H9 cells infected with HIV; read-out: Ratio IC50/EC50
[24] = tested on: Mus musculus; assay: Analgesic activity in phenylbenzoquinone induced mouse assessed as reduction in writhing at 10 mg/kg, po measured after 1 hrs by writhing test relative to control; assay type: functional
[25] = tested on: Mus musculus; assay: Analgesic activity in acetic acid peritonitis induced mouse assessed as reduction in writhing at 10 mg/kg, po measured after 1 hrs by writhing test relative to control; assay type: functional

Chain of Histamine H2 receptor (Homo sapiens) (P25021 whole entry): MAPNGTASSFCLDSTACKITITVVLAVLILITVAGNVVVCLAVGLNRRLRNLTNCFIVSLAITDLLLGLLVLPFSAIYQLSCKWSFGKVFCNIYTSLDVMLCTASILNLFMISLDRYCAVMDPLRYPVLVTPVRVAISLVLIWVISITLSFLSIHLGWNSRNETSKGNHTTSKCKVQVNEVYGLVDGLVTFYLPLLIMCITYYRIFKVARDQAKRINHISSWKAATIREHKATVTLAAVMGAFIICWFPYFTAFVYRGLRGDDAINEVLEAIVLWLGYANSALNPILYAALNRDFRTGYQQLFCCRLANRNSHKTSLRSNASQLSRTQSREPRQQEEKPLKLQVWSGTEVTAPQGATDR

CCCCS(=O)(=O)NC(CCCc1ccc2[nH]c(=O)n(CCC3CCNCC3)c(=O)c2c1)C(=O)O (stereo unspecified)
IC50 [1]: 0.21 µM

O=C(O)c1cc(Br)ccc1-n1c(/C=C/c2ccc([N+](=O)[O-])cc2)nc2ccccc2c1=O
inhibition in vivo at 200 mg/kg [2]: 62.2%

CCCCS(=O)(=O)NC(CC#Cc1ccc2[nH]c(=O)n(CCC3CCNCC3)c(=O)c2c1)C(=O)O (stereo unspecified)
IC50 [1]: 0.21 µM

CC(/N=N/n1cnc2ccccc2c1=O)=N\Nc1ccccc1Cl
Activity [3]: 15%

Oc1nc(-c2ccc(F)cc2)nc2cc3c(cc12)OCO3
ED50 [4]: 17.7 µmol/kg

CC1(C)NC(N)=Nc2ccccc21
EC50 [5]: 420 µM

CNC(=C[N+](=O)[O-])NCCSCc1ccc(CN(C)C)o1
ED50 [6]: 12.3 mg/kg | pKb [6]: 7.06

Nc1nc(N)c2c(CCCc3ccc(C(=O)N[C@@H](C[C@H](F)C(=O)O)C(=O)O)cc3)c[nH]c2n1
IC50 [7]: 1.41 µM | IC50 [8]: 2.93 µM

C#CCN(Cc1ccc2nc(C)[nH]c(=O)c2c1)c1ccc(C(=O)N[C@@H](C[C@H](F)C(=O)O)C(=O)O)cc1
IC50 [7]: 0.00567 µM | IC50 [8]: 0.00808 µM

CC(/N=N/n1cnc2ccccc2c1=O)=N\Nc1ccccc1
Activity [3]: 15%

CCOC(=O)c1c(C)cc2nc(COC(=O)NC(C)C)n(-c3ccccc3Cl)c(=O)c2c1C
ED30 [9]: 0.42 mg/kg

O=c1c2ccccc2nc(-c2ccncc2)n1-c1ccccc1F
Time [10]: 699.7 min | Time [11]: 3.5 min | Time [12]: 111.2 min

CCCCS(=O)(=O)NC(CCCc1ccc2c(c1)c(=O)n(CCC1CCNCC1)c(=O)n2C)C(=O)O (stereo unspecified)
IC50 [1]: 0.21 µM

Cc1ccc2nc(SCCCN3C(=O)c4ccccc4C3=O)n(Cc3ccccc3)c(=O)c2c1
IC50 [13]: 1.85 µM | IC50 [14]: 1.85 µM

O=c1c2ccccc2nc(S)n1NCNc1ccccc1
Activity [15]: 25% | Activity [16]: 27%

O=C(O)c1ccc(Cl)cc1-n1c(/C=C/c2ccc([N+](=O)[O-])cc2)nc2ccccc2c1=O
inhibition in vivo at 200 mg/kg [2]: 62.2%

CCCc1nnc2n(-c3cccc(C)c3)c(=O)c3ccccc3n12
Activity [17]: 4%

CCCCS(=O)(=O)NC(CCCc1ccc2c(c1)c(=O)n(CCC1CCNCC1)c(=O)n2Cc1ccccc1)C(=O)O (stereo unspecified)
IC50 [1]: 0.21 µM

Cc1nc2ccc(CN(C)c3ccc(C(=O)N[C@@H](C[C@@H](F)C(=O)O)C(=O)O)s3)cc2c(=O)[nH]1
IC50 [7]: 0.00567 µM | IC50 [8]: 0.00808 µM

CN(Cc1cnc2nc(N)nc(N)c2n1)c1ccc(C(=O)N[C@@H](CCC(=O)O)C(=O)O)cc1 [METHOTREXATE]
IC50 [7]: 0.0134 µM | IC50 [8]: 0.0275 µM

O=c1c2ccccc2nc(-c2cccnc2)n1-c1ccccc1F
Time [10]: 395.5 min

O=c1c2ccccc2nc(S)n1NCNc1ccccn1
Activity [15]: 25% | Activity [16]: 27%

Cc1cccc(-n2c(=O)c3ccccc3n3c(C)nnc23)c1
Activity [17]: 4%

Nc1nc2c(c(=O)[nH]1)C[C@@H](CCc1ccc(C(=O)N[C@@H](C[C@@H](F)C(=O)O)C(=O)O)cc1)CN2
IC50 [7]: 2.3 µM | IC50 [8]: 2.93 µM

Oc1nc(-c2ccc(Br)cc2)nc2cc3c(cc12)OCO3
ED50 [4]: 27.8 µmol/kg | ED50 [18]: 32.7 µmol/kg

CN(C)CCC(c1ccc(Cl)cc1)c1ccccn1 (stereo unspecified) [CHLORPHENIRAMINE]
Activity [17]: 25%

O=C(O)c1ccc(Cl)cc1-n1c(/C=C/c2ccc(F)cc2)nc2ccccc2c1=O
inhibition in vivo at 200 mg/kg [2]: 62.2%

O=c1c2ccccc2nc(-c2ccncc2)n1CCCN1CCOCC1
Time [10]: 7.1 min

Oc1nc(-c2ccc(Cl)cc2)nc2cc3c(cc12)OCO3
ED50 [18]: 32.7 µmol/kg

NC1=NCc2ccccc2C(=O)N1
EC50 [5]: 650 µM

Nc1ccc(-c2nc(S)c3cc4c(cc3n2)OCO4)cc1
ED50 [4]: 36.6 µmol/kg | ED50 [18]: 68.3 µmol/kg

Nc1nc2c(c(=O)[nH]1)C[C@@H](CCc1ccc(C(=O)N[C@@H](C[C@H](F)C(=O)O)C(=O)O)cc1)CN2
IC50 [7]: 2.3 µM | IC50 [8]: 2.93 µM

Cc1nc2ccccc2c(=O)n1NCN1CCOCC1
Activity [15]: 21% | Activity [16]: 25%

O=c1[nH]c(NCCCOc2cccc(CN3CCCCC3)c2)nc2ccccc12
pKb [6]: 7.39

COc1cccc2c(=O)n(Cc3ccccc3)c(SCCN3CCOCC3)nc12
IC50 [13]: 1.85 µM | IC50 [14]: 1.85 µM

CC(/N=N/n1cnc2ccccc2c1=O)=N\Nc1ccc(Cl)cc1
Activity [3]: 15%

COC(=O)CCC(NC(=O)c1ccc(N(C)Cc2ccc3nc(C)[nH]c(=O)c3c2)s1)C(=O)OC (stereo unspecified)
IC50 [19]: 1.8 µM | IC50 [20]: 2.1 µM

COC(=O)CCC(NC(=O)c1ccc(NCc2ccc3nc(C)[nH]c(=O)c3c2Cl)s1)C(=O)OC (stereo unspecified)
IC50 [19]: 1.8 µM | IC50 [20]: 2.1 µM

O=c1c2ccccc2nc(S)n1NCn1cnc2ccccc21
Activity [15]: 25% | Activity [16]: 27%

Cc1cccc(-n2c(=O)c3ccccc3n3c(CCl)nnc23)c1
Activity [17]: 4%

Cc1cccc(-n2c(=O)c3ccccc3n3cnnc23)c1
Activity [17]: 4%

Nc1ccc(-c2nc(O)c3cc4c(cc3n2)OCO4)cc1
ED50 [4]: 21.6 µmol/kg | ED50 [18]: 36.5 µmol/kg

O=C(O)c1cc(Br)ccc1-n1c(/C=C/c2ccc(O)cc2)nc2ccccc2c1=O
inhibition in vivo at 200 mg/kg [2]: 62.2%

O=C(O)c1ccc(Cl)c(-n2c(/C=C/c3ccc(F)cc3)nc3ccccc3c2=O)c1
inhibition in vivo at 200 mg/kg [2]: 62.2%

CCCCS(=O)(=O)NC(CCCc1ccc2c(c1)c(=O)n(CCC1CCNCC1)c(=O)n2Cc1ccncc1)C(=O)O (stereo unspecified)
IC50 [1]: 0.21 µM

NC1=Nc2ccccc2C2(CC2)N1
EC50 [5]: 100 µM

O=c1c2c(Br)cc(Br)cc2nc(-c2ccccc2)n1-c1nc2ccccc2s1
Activity [21]: 21.3%

Nc1nc(N)c2c(CCCc3ccc(C(=O)N[C@@H](C[C@@H](F)C(=O)O)C(=O)O)cc3)c[nH]c2n1
IC50 [7]: 1.41 µM | IC50 [8]: 2.93 µM

COc1cc2nc(-c3ccc4ccccc4c3)nc(O)c2cc1OC
EC50 [22]: 7.59 µM | IC50 [22]: 100 µM | selectivity ratio [23]: 13.2

COc1cc2nc(-c3ccccc3F)nc(O)c2cc1OC
EC50 [22]: 10.9 µM | IC50 [22]: 100 µM | selectivity ratio [23]: 9.17

COc1ccc(N/N=C(C)/N=N/n2cnc3ccccc3c2=O)cc1
Activity [3]: 15%

CCNC(=O)OCc1nc2cc(C)c(C(=O)OCC)c(C)c2c(=O)n1-c1ccccc1Cl
ED30 [9]: 0.35 mg/kg

COc1cc(N/N=C(C)/N=N/n2cnc3ccccc3c2=O)ccc1O
Activity [3]: 15%

Nc1nc(O)c2c(Cl)c(CNc3ccc(C(=O)NC(CCC(=O)O)C(=O)O)cc3)ccc2n1 (stereo unspecified)
IC50 [19]: 1.8 µM | IC50 [20]: 1.8 µM

COC(=O)CCC(NC(=O)c1ccc(NCc2ccc3nc(N)[nH]c(=O)c3c2Cl)s1)C(=O)OC (stereo unspecified)
IC50 [19]: 1.8 µM | IC50 [20]: 2.1 µM

O=c1c2ccccc2nc(-c2ccccc2)n1-c1nc2ccccc2s1
Activity [21]: 30.3%

CC(/N=N/n1cnc2ccccc2c1=O)=N\Nc1ccc(O)cc1
Activity [3]: 15%

CCCCS(=O)(=O)NC(CNC(=O)c1ccc2[nH]c(=O)n(CCC3CCNCC3)c(=O)c2c1)C(=O)O (stereo unspecified)
IC50 [1]: 0.21 µM

CCc1nnc2n(-c3cccc(C)c3)c(=O)c3ccccc3n12
Activity [17]: 4%

COc1ccc(/C=C/c2nc3ccccc3c(=O)n2-c2cc(C(=O)O)ccc2Cl)cc1
inhibition in vivo at 200 mg/kg [2]: 62.2%

CC(/N=N/n1cnc2ccccc2c1=O)=N\Nc1ccc(C)cc1
Activity [3]: 15%

CCOC(=O)c1c(C)cc2nc(COC(=O)NC)n(-c3ccccc3Cl)c(=O)c2c1C
ED30 [9]: 2.8 mg/kg

COc1cccc2c(=O)n(Cc3ccccc3)c(SCCCN3C(=O)c4ccccc4C3=O)nc12
IC50 [13]: 1.85 µM | IC50 [14]: 1.85 µM

CC(=O)Oc1ccccc1C(=O)O [ASPIRIN]
inhibition in vivo at 10 mg/kg [24]: 20% | inhibition in vivo at 10 mg/kg [25]: 60%

Clc1cccc(Cl)c1NC1=NCCN1 [CLONIDINE]
ED30 [9]: 0.065 mg/kg

Cc1nc2ccccc2c(=O)n1NCN(C)C
Activity [15]: 21% | Activity [16]: 25%
